Measurements reported in US10316017B2, “COT modulators and methods of use thereof” (Gilead Sciences, Inc., priority 2015, dated 2019).

How the values were obtained:
[1] = system: TNFα production in LPS-stimulated human monocytes; experiment: Cot Monocyte TNFα Cell Based Assay; details: Homo sapiens, Monocyte, TNFα in LPS-stimulated human monocytes; read-out: EC50 TNF
Summary of the method: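 5,000 cells/well; cmpd 1 h, 37 °C, 0.5% DMSO final; LPS 50 pg/ml, 4 h, 37 °C; media TNFα by HTRF sandwich (cryptate/XL665), RT overnight; % control vs unstimulated/stimulated wells.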

[2] = target: T1, human Cot catalytic domain (30-397 amino acids) (Homo sapiens, UniProt P41279); experiment: High Throughput Cot Biochemical Assay (KinEASE TR-FRET); details: Cot biochemical HTRF (KinEASE TR-FRET) assay; read-out: IC50 HTRF
T1 construct: Purified recombinant human Cot catalytic domain (30-397 amino acids) was purchased from Cama Biosciences; purchased Cama Biosciences (so in the source)
Summary of the method: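 First, purified human Cot (aa 30-397) at 5 nM phosphorylates an XL665-labeled STK3 peptide (1 μM) at 400 μM ATP, pH 7.0, 0.1% DMSO. Then a europium-conjugated phospho-specific antibody binds the product, giving the TR-FRET signal.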

T1 sequence (P41279 30-397): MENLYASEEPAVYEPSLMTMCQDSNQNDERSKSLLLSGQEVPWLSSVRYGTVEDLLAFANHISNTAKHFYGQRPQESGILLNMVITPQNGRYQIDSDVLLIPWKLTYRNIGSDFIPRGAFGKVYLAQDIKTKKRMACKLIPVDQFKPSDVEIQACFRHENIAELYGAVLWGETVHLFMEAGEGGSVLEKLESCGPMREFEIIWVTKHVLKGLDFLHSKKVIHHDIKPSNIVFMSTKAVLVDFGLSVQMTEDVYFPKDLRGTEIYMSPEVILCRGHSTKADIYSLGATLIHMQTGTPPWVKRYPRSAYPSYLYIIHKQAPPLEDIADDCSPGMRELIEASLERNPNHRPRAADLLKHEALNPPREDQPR

Structure (SMILES) | EC50 [1] [nM] | IC50 [2] [nM]
C[C@@H](Nc1c(C#N)cnc2c(Cl)cc(N[C@@H](c3ccccc3)c3cn(C4CCN(C(C)(C)C)CC4)nn3)cc12)c1ccc(F)cc1 [Example 634, 6-(((S)-(1-(1-(tert-butyl)piperidin-4-yl)-1H-1,2,3-triazol-4-yl)(phenyl)methyl)amino)-8-chloro-4-(((R)-1-(4-fluorophenyl)ethyl)amino) quinoline-3-carbonitrile] | 3090 | 30
CC(C)(C)N1CCC(n2cc([C@@H](Nc3cc(Cl)c4ncc(C#N)c(NC5C6CC7CC(C6)CC5C7)c4c3)c3ccccc3)nn2)CC1 (stereo partly drawn) [Example 635, 4-(((1S,3S,5S,7S)-adamantan-2-yl)amino)-6-(((S)-(1-(1-(tert-butyl)piperidin-4-yl)-1H-1,2,3-triazol-4-yl)(phenyl)methyl)amino)-8-chloroquinoline-3-carbonitrile] | 1080 | 13
CC(C)(C)N1CCC(n2cc([C@@H](Nc3cc(Cl)c4ncc(C#N)c(NC56CCC7CC(CC(C7)C5)C6)c4c3)c3ccccc3)nn2)CC1 [Example 636, 6-(((S)-(1-(1-(tert-butyl)piperidin-4-yl)-1H-1,2,3-triazol-4-yl)(phenyl)methyl)amino)-8-chloro-4-(((1R,3r,6S,8S)-tricyclo[4.3.1.13,8]undecan-3-yl)amino)quinoline-3-carbonitrile] | 2390 | 143
CC(C)(C)N1CCC(n2cc([C@@H](Nc3cc(Cl)c4ncc(C#N)c(NC56CC7CC(CC(C7)C5)C6)c4c3)c3ccccc3)nn2)CC1 [Example 637, 4-(((3R,5R,7R)-adamantan-1-yl)amino)-6-(((S)-(1-(1-(tert-butyl)piperidin-4-yl)-1H-1,2,3-triazol-4-yl)(phenyl)methyl)amino)-8-chloroquinoline-3-carbonitrile] | 1280 | 36
N#Cc1cnc2c(Cl)cc(N[C@@H](c3ccc(Cl)cc3)c3c[nH]nn3)cc2c1Nc1ccc2c(cnn2Cc2ccccc2)c1 [Example 638, (S)-4-((1-benzyl-1H-indazol-5-yl)amino)-8-chloro-6-(((4-chlorophenyl)(1H-1,2,3-triazol-4-yl)methyl)amino)quinoline-3-carbonitrile] | 2650 | > 10000
N#Cc1cnc2c(Cl)cc(N[C@@H](c3ccc(Cl)cc3)c3c[nH]nn3)cc2c1Nc1cc(Cl)ccc1F [Example 639, (S)-8-chloro-4-((5-chloro-2-fluorophenyl)amino)-6-(((4-chlorophenyl)(1H-1,2,3-triazol-4-yl)methyl)amino)quinoline-3-carbonitrile] | 1710 | 664
N#Cc1cnc2c(Cl)cc(N[C@@H](c3ccc(Cl)cc3)c3c[nH]nn3)cc2c1Nc1c(F)cccc1F [Example 640, (S)-8-chloro-6-(((4-chlorophenyl)(1H-1,2,3-triazol-4-yl)methyl)amino)-4-((2,6-difluorophenyl)amino)quinoline-3-carbonitrile] | 2840 | 2340
N#Cc1cnc2c(Cl)cc(NC(c3ccccc3)c3cn(C4CCNCC4)cn3)cc2c1Nc1ccc(F)c(Cl)c1 (stereo not shown) [Example 642, 8-chloro-4-((3-chloro-4-fluorophenyl)amino)-6-((phenyl (1-(piperidin-4-yl)-1H-imidazo-4-yl)methyl)amino)quinoline-3-carbonitrile] | 383 | 17
CC(C)(C)N1CCC(n2cc([C@@H](Nc3cc(Cl)c4ncc(C#N)c(Nc5ccc(F)c(Cl)c5)c4c3)c3cccc(I)c3)nn2)CC1 [Example 643] | 151 | 7
N#Cc1cnc2c(Cl)cc(N[C@@H](c3ccccc3)c3c[nH]nn3)cc2c1Nc1ccc(Cl)c(Cl)c1F [Example 644, (S)-8-chloro-4-((3,4-dichloro-2-fluorophenyl)amino)-6-((phenyl(1H-1,2,3-triazol-4-yl)methyl)amino)quinoline-3-carbonitrile] | 1100 | 132
CC(C)(C)N1CCC(n2cc([C@@H](Nc3cc(Cl)c4ncc(C#N)c(Nc5ccc(F)c(Cl)c5)c4c3)c3cccc(C(=O)N4CC(F)(F)C4)c3)nn2)CC1 [Example 645, (S)-6-(((1-(1-(tert-butyl)piperidin-4-yl)-1H-1,2,3-triazol-4-yl)(3-(3,3-difluoroazetidine-1-carbonyl)phenyl)methyl)amino)-8-chloro-4-((3-chloro-4-fluorophenyl)amino)quinoline-3-carbonitrile] | 41 | 2
CC(C)(C)N1CCC(n2cc([C@@H](Nc3cc(Cl)c4ncc(C#N)c(Nc5ccc(F)c(Cl)c5)c4c3)c3cccc(C(=O)N4CC(F)C4)c3)nn2)CC1 [Example 646, (S)-6-(((1-(1-(tert-butyl)piperidin-4-yl)-1H-1,2,3-triazol-4-yl)(3-(3-fluoroazetidine-1-carbonyl)phenyl)methyl)amino)-8-chloro-4-((3-chloro-4-fluorophenyl)amino)quinoline-3-carbonitrile] | 49 | 1
N#Cc1cnc2c(Cl)cc(N[C@@H](c3ccc(Cl)cc3)c3c[nH]nn3)cc2c1Nc1cc(F)c(F)cc1F [Example 647, (S)-8-chloro-6-(((4-chlorophenyl)(1H-1,2,3-triazol-4-yl)methyl)amino)-4-((2,4,5-trifluorophenyl)amino)quinoline-3-carbonitrile] | 3240 | 377
N#Cc1cnc2c(Cl)cc(N[C@@H](c3ccc(Cl)cc3)c3c[nH]nn3)cc2c1Nc1ccc(OCc2ccccc2)c(Cl)c1 [Example 648, (S)-4-((4-(benzyloxy)-3-chlorophenyl)amino)-8-chloro-6-(((4-chlorophenyl)(1H-1,2,3-triazol-4-yl)methyl)amino)quinoline-3-carbonitrile] | 4430 | > 10000
CCOc1ccc(Nc2c(C#N)cnc3c(Cl)cc(N[C@@H](c4ccc(Cl)cc4)c4c[nH]nn4)cc23)cc1Cl [Example 649, (S)-8-chloro-4-((3-chloro-4-ethoxyphenyl)amino)-6-(((4-chlorophenyl)(1H-1,2,3-triazol-4-yl)methyl)amino)quinoline-3-carbonitrile] | 2740 | 1460
CC(C)(C)N1CCC(n2cc([C@@H](Nc3cc(Cl)c4ncc(C#N)c(Nc5ccc(F)c(F)c5F)c4c3)c3ccc(Cl)cc3)nn2)CC1 [Example 650, (S)-6-(((1-(1-(tert-butyl)piperidin-4-yl)-1H-1,2,3-triazol-4-yl)(4-chlorophenyl)methyl)amino)-8-chloro-4-((2,3,4-trifluorophenyl)amino)quinoline-3-carbonitrile] | 661 | 32
CC(C)(C)N1CCC(n2cc([C@@H](Nc3cc(Cl)c4ncc(C#N)c(Nc5cc(F)c(F)cc5F)c4c3)c3ccc(Cl)cc3)nn2)CC1 [Example 651, (S)-6-(((1-(1-(tert-butyl)piperidin-4-yl)-1H-1,2,3-triazol-4-yl)(4-chlorophenyl)methyl)amino)-8-chloro-4-((2,4,5-trifluorophenyl)amino)quinoline-3-carbonitrile] | 10600 | 52
CC(C)(C)N1CCC(n2cc([C@@H](Nc3cc(Cl)c4ncc(C#N)c(Nc5cc(Cl)ccc5F)c4c3)c3ccc(Cl)cc3)nn2)CC1 [Example 652, (S)-6-(((1-(1-(tert-butyl)piperidin-4-yl)-1H-1,2,3-triazol-4-yl)(4-chlorophenyl)methyl)amino)-8-chloro-4-((5-chloro-2-fluorophenyl)amino)quinoline-3-carbonitrile] | 7660 | 61
CC(C)(C)N1CCC(n2cc([C@@H](Nc3cc(Cl)c4ncc(C#N)c(Nc5c(F)cccc5F)c4c3)c3ccc(Cl)cc3)nn2)CC1 [Example 653, (S)-6-(((1-(1-(tert-butyl)piperidin-4-yl)-1H-1,2,3-triazol-4-yl)(4-chlorophenyl)methyl)amino)-8-chloro-4-((2,6-difluorophenyl)amino)quinoline-3-carbonitrile] | 9280 | 160
CC(C)(C)N1CCC(n2cc([C@@H](Nc3cc(Cl)c4ncc(C#N)c(Nc5ccc(OCc6ccccc6)c(Cl)c5)c4c3)c3ccc(Cl)cc3)nn2)CC1 [Example 654, (S)-4-((4-(benzyloxy)-3-chlorophenyl)amino)-6-(((1-(1-(tert-butyl)piperidin-4-yl)-1H-1,2,3-triazol-4-yl)(4-chlorophenyl)methyl)amino)-8-chloroquinoline-3-carbonitrile] | > 50000 | 2040
CCOc1ccc(Nc2c(C#N)cnc3c(Cl)cc(N[C@@H](c4ccc(Cl)cc4)c4cn(C5CCN(C(C)(C)C)CC5)nn4)cc23)cc1Cl [Example 655, (S)-6-(((1-(1-(tert-butyl)piperidin-4-yl)-1H-1,2,3-triazol-4-yl)(4-chlorophenyl)methyl)amino)-8-chloro-4-((3-chloro-4-ethoxyphenyl)amino)quinoline-3-carbonitrile] | 10500 | 324
C[C@@H](Nc1c(C#N)cnc2c(Cl)cc(N[C@@H](c3ccccc3)c3c[nH]nn3)cc12)c1ccccc1 [Example 656, 8-chloro-6-(((S)-phenyl(1H-1,2,3-triazol-4-yl)methyl)amino)-4-(((R)-1-phenylethyl)amino) quinoline-3-carbonitrile] | 1820 | 39
C[C@@H](Nc1c(C#N)cnc2c(Cl)cc(N[C@@H](c3ccc(Cl)cc3)c3c[nH]nn3)cc12)c1ccccc1 [Example 657, 8-chloro-6-(((S)-(4-chlorophenyl)(1H-1,2,3-triazol-4-yl)methyl)amino)-4-(((R)-1-phenylethyl)amino)quinoline-3-carbonitrile] | 2490 | 143
